Results taken from patent publication EP4736876A1, “DRUG COMBINATION CONTAINING PD-L1 SMALL MOLECULE INHIBITOR AND USE THEREOF” (Beijing Maxinovel Pharmaceuticals Co., Ltd., priority 2023, dated 2025).

Tests used:
[1] = tested on: 4T1 hPD-L1 cells; assay: Pharmacodynamic study on mouse breast cancer 4T1 hPD-L1 model, subcutaneous (Example 1, capecitabine combination); type: in vivo, BALB/c mice; conditions: Compound of Formula I 120 mg/kg p.o. BID, Capecitabine 100 mg/kg p.o. QD; for TGI (%)/Day 21: Day 21 vs vehicle control; for Tumor Volume at the Beginning of the Experiment/Day 0: baseline on day of grouping
Method: Experimental animals: 100 BALB/c mice, female, 6 to 8 weeks old, weighing 18 to 21 g, purchased from Shanghai Jihui Laboratory Animal Care Co., Ltd. (SCXK (Shanghai) 2020-0009; Certificate No.: 20220009001922).
Drugs: Compound of Formula I [drawing 4] manufacturer: Pharmaron (Tianjin) Process Development and Manufacturing Co., Ltd., batch number: TJ-MAX-10181-A-2; Capecitabine, manufacturer: Shanghai Yuanye Bio-Technology Co., Ltd., batch number: J10J12L137020.
(§1) Murine 4T1 hPD-L1 cells were grown adherently in vitro under culture conditions of RPMI-1640 medium supplemented with 10% heat-inactivated fetal bovine serum and 4 µg/mL Blasticidin (Beyotime/ST018-1mL), at 37°C with 5% CO2. Cells were passaged 2 to 3 times per week. When cells were in the exponential growth phase, the cells were harvested, counted, and inoculated subcutaneously on the right dorsal side of BALB/c mice.
100 µL of 1 × 10^6 4T1 hPD-L1 cell suspension was inoculated subcutaneously on the right dorsal side of BALB/c mice. On the 6th day after inoculation, suitable animals were selected based on tumor volume and body weight, and stratified randomization was used to divide them into 4 groups, with 10 mice per group. Administration began on the day of grouping. Table 1: Animal Experiment Grouping and Administration Regimen
(§2) The experimental indicators were examined to determine whether tumor growth could be inhibited, delayed, or cured. Tumors were measured three times per week using a digital vernier caliper. The tumor volume was calculated using the formula: V = 0.5a × b^2, where a and b represent the long and short diameters of the tumor, respectively. The tumor growth inhibition efficacy of compounds was calculated as: TGI (%) = [1 - (TVi - TV0) / (TVVi - TVV0)] × 100% (where TV0 represents the mean volume of the treatment group on day 0, TVV0 represents the mean volume of the control group on day 0; TVi represents the mean volume of the treatment group on day i, and TVVi represents the mean volume of the control group on day i).
(§3) If the animals' health condition continued to deteriorate, or the tumor volume exceeded 2,000 mm^3, or severe illness or pain occurred, euthanasia was required. In the following circumstances, the veterinarian was notified and euthanasia was performed: • (1) Significant emaciation with body weight loss exceeding 20%; • (2) Inability to freely access food and water; • (3) The experiment was terminated when the average tumor volume in the control group reached 2000 mm^3.
(§4) GraphPad Prism 8.0 software was used for plotting. Changes in tumor volume in mice were analyzed by Two-way ANOVA and compared with the vehicle control group using Dunnett's method, with P < 0.05 considered statistically significant.

[2] = tested on: 4T1 hPD-L1 cells; assay: Pharmacodynamic study on mouse breast cancer 4T1 hPD-L1 model, subcutaneous (Example 2, celecoxib combination); type: in vivo, BALB/c mice; conditions: Compound of Formula I 120 mg/kg p.o. BID, Celecoxib 60 mg/kg p.o. BID; for TGI (%)/Day 21: Day 21 vs vehicle control; for Tumor Volume at the End of the Experiment/Day 21 / Tumor Volume at the Beginning of the Experiment/Day 0 / Body Weight of Animals at the Beginning of the Experiment / Body Weight of Animals at the End of the Experiment / Relative Body Weight Change of Animals at the End of the Experiment: mean; for Tumor Volume at the End of the Experiment/Day 21 / Tumor Volume at the Beginning of the Experiment/Day 0: n=10; for Tumor Volume at the Beginning of the Experiment/Day 0: baseline on day of grouping; for Body Weight of Animals at the Beginning of the Experiment: baseline
Method: Experimental animals: 100 BALB/c mice, female, 6 to 8 weeks old, weighing 18 to 21 g, purchased from: Shanghai Jihui Laboratory Animal Care Co., Ltd. (SCXK (Shanghai) 2020-0009; Certificate No.: 20220009001922).
Drugs: Compound of Formula I, manufacturer: Pharmaron (Tianjin) Process Development and Manufacturing Co., Ltd., batch number: TJ-MAX-10181-A-2; Celecoxib, manufacturer: Shanghai Yuanye Bio-Technology Co., Ltd., batch number: D11A6S2152.
as §1
100 µL of 1 × 10^6 4T1 hPD-L1 cell suspension was inoculated subcutaneously on the right dorsal side of BALB/c mice. On the seventh day after inoculation, stratified randomization was used to divide into 4 groups (10 mice per group) based on tumor volume and body weight. Administration began on the day of grouping. Table 5: Animal Experiment Grouping and Administration Regimen
as §2, §3, §4

[3] = tested on: 4T1 cells; assay: Orthotopic 4T1 breast cancer model with tumor resection, survival study (Example 3, paclitaxel combination); type: in vivo, BALB/c mice; conditions: day 38; Compound of Formula I 60 mg/kg PO BID; Paclitaxel 6 mg/kg IP Q2D; orthotopic tumors resected 13 days after inoculation; n=10
Method: Experimental animals: 50 BALB/c mice, female, 6 to 8 weeks old, weighing 18 to 20 g. Zhejiang Vital River Laboratory Animal Technology Co., Ltd., Tongxiang Branch (SCKX (Zhejiang) 2021-0006); Certificate No.: 20220728Abzz0600000694.
Drugs: Compound of Formula I, manufacturer: Pharmaron (Tianjin) Process Development and Manufacturing Co., Ltd., batch number: TJ-MAX-10181-A-2; Paclitaxel (6 mg/mL), manufacturer: Corden Pharma Latina S.P.A., batch number: 2D07013.
as §1, with “4T1” for “4T1 hPD-L1”, “serum” for “serum and 4 µg/mL Blasticidin (Beyotime/ST018-1mL),”, “When the” for “When”, “into the fourth fat pad” for “subcutaneously”, “left abdomen” for “right dorsal side”
50 µL of 1 × 10^5 4T1 cell suspension was inoculated into the fourth fat pad on the left abdomen of BALB/c mice. […]
The experimental indicators were examined to determine whether tumor growth could be inhibited, delayed, or cured. Tumors were measured three times per week using a digital vernier caliper. The tumor volume was calculated using the formula: V = 0.5a × b^2, where a and b represent the long and short diameters of the tumor, respectively. […]

[4] = tested on: GL-261-luc cells; assay: Mouse glioma GL-261-luc brain orthotopic xenograft tumor model, pharmacodynamics and survival (Example 4, temozolomide combination); type: in vivo, C57 BL/6 mice; conditions: Compound of Formula I 120 mg/kg PO BID, TMZ 7.5 mg/kg IP BIW; for TGI (%)/Day 14: Day 14, based on fluorescence signal intensity vs vehicle control; for Total Fluorescence Intensity at the Beginning of the Experiment/Day 0: baseline Day 0; for mice showed > 10% body weight loss: by day 14 of administration, 9 mice per group; for Body Weight of Animals at the End of the Experiment / Relative Body Weight Change of Animals at the End of the Experiment / Body Weight of Animals at the Beginning of the Experiment: mean, n=9; for Body Weight of Animals at the Beginning of the Experiment: baseline; for increase in life span (ILS): median survival vs vehicle control, end of experiment
Method: Experimental animals: 57 C57 BL/6 mice, female, 6 to 8 weeks old, weighing 16 to 20 g, purchased from Shanghai Jihui Laboratory Animal Care Co., Ltd.
Drugs: Compound of Formula I [drawing 5] manufacturer: Pharmaron (Tianjin) Process Development and Manufacturing Co., Ltd., batch number: TJ-MAX-10181-A-2; TMZ (Temozolomide), manufacturer: Shanghai Aladdin Biochemical Technology Co., Ltd., batch number: J2227749.
Murine GL-261-luc cells were grown adherently in vitro under culture conditions of DMEM medium supplemented with 10% heat-inactivated fetal bovine serum and 0.6 mg/mL G418 (stock concentration: 100 mg/mL), at 37°C with 5% CO2. Cells were passaged 2 to 3 times per week. When cells were in the exponential growth phase, the cells were harvested, counted, and inoculated into the right caudate nucleus of C57 BL/6 mice.
GL-261-luc cells in logarithmic growth phase were harvested at full confluence with viability guaranteed 90% or more. Mice were anesthetized via intraperitoneal injection of 41.6 mg/kg Zoletil according to body weight. 1 × 10^5/2 µL/mouse cells was orthotopically inoculated into the right caudate nucleus of each mouse, and the skin was sutured with 4/0 suture. After recovery, mice were returned to their cages. 4 days after inoculation, mice were imaged and grouped using the IVIS Lumina XR small animal imager. Fluorescence signal intensity was used for stratified randomization into 4 groups (9 mice per group). Administration began on the day of grouping, with daily weight monitoring and observation of mouse growth status. Mice were imaged twice weekly. Table 11: Animal Experiment Grouping and Administration Regimen
The experimental indicators were examined to determine whether tumor growth could be inhibited, delayed, or cured. According to the experimental design, tumor growth was monitored by imaging mice using the IVIS Lumina XR small animal imager. The tumor growth inhibition efficacy of the compounds was evaluated using TGI (Tumor Growth Inhibition), where TGI (%) = [1 - (TFtreatment-Dn - TFtreatment-D0) / (TFcontrol-Dn - TFcontrol-D0)] × 100% (where TFtreatment-D0 represents the fluorescence signal intensity of the treatment group on day 0, TFcontrol-D0 represents the fluorescence signal intensity of the control group on day 0; TFtreatment-Dn represents the fluorescence signal intensity of the treatment group on day n, and TFcontrol-Dn represents the fluorescence signal intensity of the control group on day n). The calculation formula for an increase in life span (ILS) is: ILS = (MSTTreatment - MSTControl) / MSTControl × 100% (where MSTTreatment is the median survival days for the treatment group, and MSTControl is the median survival days for the control group).
Tumor size was analyzed using the statistical software GraphPad Prism based on fluorescence signal intensity values. Two-way ANOVA was used to compare whether there were significant differences in fluorescence signal intensity between the control group and each treatment group, with p < 0.05 considered statistically significant and p < 0.01 considered highly statistically significant.

Row | Structure (SMILES) | TGI (%)/Day 21 [1] [%] | Tumor Volume at the Beginning of the Experiment/Day 0 ([1]; mean, n=10) [mm^3] | TGI (%)/Day 21 [2] [%] | Tumor Volume at the End of the Experiment/Day 21 [2] [mm^3] | Tumor Volume at the Beginning of the Experiment/Day 0 [2] [mm^3] | Body Weight of Animals at the Beginning of the Experiment [2] [g] | Body Weight of Animals at the End of the Experiment [2] [g] | Relative Body Weight Change of Animals at the End of the Experiment [2] [%] | survival rate of mice [3] [%] | TGI (%)/Day 14 [4] [%] | Total Fluorescence Intensity at the End of the Experiment/Day 14 [4] [E + 09 p/s] | Total Fluorescence Intensity at the Beginning of the Experiment/Day 0 [4] [E + 07 p/s] | mice showed > 10% body weight loss [4] [mice] | Body Weight of Animals at the End of the Experiment [4] [g] | Relative Body Weight Change of Animals at the End of the Experiment [4] [%] | Body Weight of Animals at the Beginning of the Experiment [4] [g] | increase in life span (ILS) [4] [%] | Tumor Volume at the End of the Experiment/Day 21 ([1]; mean, n=10, Day 21) [mm^3] | Body Weight of Animals at the Beginning of the Experiment ([1]; mean, baseline) [g]
1 | CCCCCOC(=O)Nc1nc(=O)n([C@@H]2O[C@H](C)[C@@H](O)[C@H]2O)cc1F [Capecitabine] | 56.16 | 125.17 | – | – | – | – | – | – | – | – | – | – | – | – | – | – | – | – | –
2 | Cc1ccc(-c2cc(C(F)(F)F)nn2-c2ccc(S(N)(=O)=O)cc2)cc1 [Celecoxib] | – | – | 83.90 | 341.70 | 159.34 | 22.68 | 23.68 | 4.48 | – | – | – | – | – | – | – | – | – | – | –
3 | CC(=O)O[C@H]1C(=O)[C@@]2(C)[C@H]([C@H](OC(=O)c3ccccc3)[C@]3(O)C[C@H](OC(=O)[C@H](O)[C@@H](NC(=O)c4ccccc4)c4ccccc4)C(C)=C1C3(C)C)[C@]1(OC(C)=O)CO[C@@H]1C[C@@H]2O [Paclitaxel] | – | – | – | – | – | – | – | – | 10 | – | – | – | – | – | – | – | – | – | –
4 | Cc1c(/C=C/c2cc(CN[C@@](C)(CO)C(=O)O)ccc2C(F)(F)F)cccc1-c1ccccc1 [Compound of Formula I] | 41.88 | 125.52 | 32.78 | 921.91 | 160.33 | 23.04 | 24.85 | 8.01 | 0 | 40.52 | 1.18 | 2.75 | 2 | 18.29 | -3.08 | 18.89 | 20 | 1103.30 | 24.20
5 | Cn1nnc2c(C(N)=O)ncn2c1=O [TMZ, Temozolomide] | – | – | – | – | – | – | – | – | – | 35.51 | 1.27 | 2.76 | 2 | 19.40 | -0.63 | 19.51 | 25 | – | –
